Data as given in patent publication US11629171B2, “Beta-hairpin peptidomimetics” (POLYPHOR AG, priority 2017, dated 2023).
≈ marks a conversion by molar mass, not a printed value. Where a SMILES comes first, the peptide text is derived from it. Bridges are numbered along the chain shown (N, C = ends). Roman numbers before positions name the chains, in order. [ ]: non-standard residue; d: D form. Pen = CC(C)(S)[C@H](N)C(=O)O; Hiv = CC(C)[C@H](O)C(=O)O; dDab = NCC[C@@H](N)C(=O)O; hSer = N[C@@H](CCO)C(=O)O; Dab = NCC[C@H](N)C(=O)O; Abu = CC[C@H](N)C(=O)O; Dap = NC[C@H](N)C(=O)O

Assays:
[1] = tested on: male ICR mice; assay: Tolerability in a mouse model (Maximum Tolerated Dose assay); type: in vivo; settings: 2 × 40 mg/kg s.c. at a 12-hr interval, groups of 3
In short: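 Peptides in 0.9% NaCl (pH 6.5-7.6) given s.c. at 30 or 40 mg/kg, twice 12 h apart, to groups of 3 male ICR mice (23±3 g). Acute toxic signs (mortality, convulsions, tremors, sedation) and autonomic effects (diarrhea, salivation, piloerection) observed for 30 min after each dose.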

[2] = tested on: Acinetobacter baumannii DSM 30008; type: cell-based; settings: DSM 30008
In short: (§1)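 CLSI broth microdilution: inoculum ~10^6 CFU/mL in cation-adjusted Mueller-Hinton II broth, with peptide in serial two-fold dilutions plus Polysorbate 80 (0.002% final). MIC (μg/mL) is the lowest concentration without visible growth after 18-20 hours at 35° C.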

[3] = tested on: Enterobacter cloacae 848840; type: cell-based; settings: 848840
In short: as §1

[4] = tested on: Pseudomonas aeruginosa ATCC 27853; type: cell-based; settings: ATCC 27853
In short: as §1

[5] = tested on: Klebsiella pneumoniae SSI #3010; type: cell-based; settings: SSI #3010
In short: as §1

[6] = tested on: Escherichia coli ATCC 25922; type: cell-based; settings: ATCC 25922
In short: as §1

[7] = tested on: Acinetobacter baumannii 872842; type: cell-based; settings: 872842
In short: as §1

[8] = tested on: Escherichia coli 926415; type: cell-based; settings: 926415
In short: as §1

[9] = tested on: Klebsiella pneumoniae 968733; type: cell-based; settings: 968733
In short: as §1

[10] = tested on: human red blood cells (hRBC); assay: Hemolysis; type: cell-based; settings: red cells of human, 1 h, 200
In short: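 Washed fresh hRBC (20% v/v) were incubated with peptides at 200 μg/mL for 1 h at 37° C with shaking at 300 rpm. Supernatant OD540 was read after centrifugation and dilution, blank-corrected, and expressed as percent of the 2% Triton X-100 (100% lysis) control; PBS with 10% water gave 0%.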

Structure (SMILES)	Mortality and dose [1]	Acinetobacter baumannii DSM 30008 MIC [2] [µg/mL]	MIC [3] [µg/mL]	Pseudomonas aeruginosa ATCC 27853 MIC [4] [µg/mL]	Klebsiella pneumoniae SSI #3010 MIC [5] [µg/mL]	Escherichia coli ATCC 25922 MIC [6] [µg/mL]	MIC [7] [µg/mL]	MIC [8] [µg/mL]	MIC [9] [µg/mL]	Hemolysis at 200 μg/mL [10] [%]
CC[C@@H]1NC(=O)[C@@H](CC(C)C)NC(=O)[C@H](CCN)NC(=O)[C@@H](NC(=O)[C@H](CN)NC(=O)[C@@H](NC(=O)[C@H](CCN)NC(=O)CC[C@@H]2NC(=O)[C@H](CCN)NC(=O)[C@H](Cc3ccc(O)cc3)NC(=O)[C@@H](NC(=O)[C@@H](NC(C)=O)C(C)C)CSSC[C@@H](C(=O)N[C@@H](CO)C(N)=O)NC(=O)[C@H]([C@@H](C)CC)NC(=O)[C@H](CO)NC(=O)[C@H](Cc3c[nH]c4ccccc34)NC(=O)[C@H](CO)NC(=O)[C@@H](CCN)NC2=O)[C@@H](C)O)CCNC(=O)[C@H]([C@@H](C)O)NC(=O)[C@H](CCN)NC(=O)[C@H](CCN)NC1=O [Ex. 338] (I: Ac-VCY[Dab]E[dDab]SWSICS-NH2 / II: [Dab]T[Dap][Dab][Dab][dL][Abu][Dab][Dab]T; disulfide I:2-I:11; amide I:5-II:N; lactam II:4-II:C)	0/3 died at 2 × 40 mg/kg	0.03125	0.0625 (≈ 0.0262 µM)	0.125	0.03125	0.03125	0.0625 (≈ 0.0262 µM)	0.0625 (≈ 0.0262 µM)	0.125 (≈ 0.0524 µM)	<1
CC[C@@H]1NC(=O)[C@H](CO)NC(=O)[C@H](Cc2c[nH]c3ccccc23)NC(=O)[C@H](CO)NC(=O)[C@@H](CCN)NC(=O)[C@H](CCC(=O)N[C@@H](CCN)C(=O)N[C@H](C(=O)N[C@@H](CN)C(=O)N[C@H]2CCNC(=O)[C@H]([C@@H](C)O)NC(=O)[C@H](CCN)NC(=O)[C@H](CCN)NC(=O)[C@H](CC)NC(=O)[C@@H](CC(C)C)NC(=O)[C@H](CCN)NC2=O)[C@@H](C)O)NC(=O)[C@H](CCN)NC(=O)[C@H](Cc2ccc(O)cc2)NC(=O)[C@@H](NC(=O)[C@@H](NC(C)=O)C(C)C)CSSC[C@@H](C(=O)N[C@@H](CO)C(N)=O)NC1=O [Ex. 339] (I: Ac-VCY[Dab]E[dDab]SWS[Abu]CS-NH2 / II: [Dab]T[Dap][Dab][Dab][dL][Abu][Dab][Dab]T; disulfide I:2-I:11; amide I:5-II:N; lactam II:4-II:C)	0/3 died at 2 × 40 mg/kg	0.0625	0.125 (≈ 0.053 µM)	0.125	0.0625	0.0625	0.125 (≈ 0.053 µM)	0.5 (≈ 0.212 µM)	0.5 (≈ 0.212 µM)	<1
CC(C)C[C@@H]1NC(=O)[C@@H](CC(C)C)NC(=O)[C@H](CCN)NC(=O)[C@@H](NC(=O)[C@H](CN)NC(=O)[C@@H](NC(=O)[C@H](CCN)NC(=O)CC[C@@H]2NC(=O)[C@H](CCN)NC(=O)[C@H](Cc3ccc(O)cc3)NC(=O)[C@@H](NC(=O)[C@@H](O)C(C)C)C(C)(C)SSC[C@@H](C(=O)N[C@@H](CO)C(N)=O)NC(=O)[C@H](C(C)C)NC(=O)[C@H](CO)NC(=O)[C@H](Cc3c[nH]c4ccccc34)NC(=O)[C@H](CO)NC(=O)[C@@H](CCN)NC2=O)[C@@H](C)O)CCNC(=O)[C@H]([C@@H](C)O)NC(=O)[C@H](CCN)NC(=O)[C@H](CCN)NC1=O [Ex. 340] (I: H-[Hiv][Pen]Y[Dab]E[dDab]SWSVCS-NH2 / II: [Dab]T[Dap][Dab][Dab][dL]L[Dab][Dab]T; disulfide I:2-I:11; amide I:5-II:N; lactam II:4-II:C)	0/3 died at 2 × 40 mg/kg	0.0625	0.125 (≈ 0.0524 µM)	0.25	0.0625	0.03125	0.0625 (≈ 0.0262 µM)	0.125 (≈ 0.0524 µM)	0.25 (≈ 0.105 µM)	<1
CC(=O)N[C@H](C(=O)N[C@H]1CCNC(=O)C[C@@H](C(=O)N[C@@H](CO)C(N)=O)NC(=O)[C@H](C(C)C)NC(=O)[C@H](CO)NC(=O)[C@H](Cc2c[nH]c3ccccc23)NC(=O)[C@H](CO)NC(=O)[C@@H](CCN)NC(=O)[C@H](CCC(=O)N[C@@H](CCN)C(=O)N[C@H](C(=O)N[C@@H](CN)C(=O)N[C@H]2CCNC(=O)[C@H]([C@@H](C)O)NC(=O)[C@H](CCN)NC(=O)[C@H](CCN)NC(=O)[C@H](CC(C)C)NC(=O)[C@@H](CC(C)C)NC(=O)[C@H](CCN)NC2=O)[C@@H](C)O)NC(=O)[C@H](CCN)NC(=O)[C@H](Cc2ccc(O)cc2)NC1=O)C(C)C [Ex. 341] (I: Ac-V[Dab]Y[Dab]E[dDab]SWSVDS-NH2 / II: [Dab]T[Dap][Dab][Dab][dL]L[Dab][Dab]T; lactam I:2-I:11, II:4-II:C; amide I:5-II:N)	0/3 died at 2 × 40 mg/kg	0.0625	2 (≈ 0.836 µM)	0.125	0.0625	0.0625	0.25 (≈ 0.105 µM)	0.5 (≈ 0.209 µM)	1 (≈ 0.418 µM)	<1
CC(=O)N[C@H](C(=O)N[C@H]1CSSC[C@@H](C(=O)N[C@@H](CO)C(N)=O)NC(=O)[C@H](C(C)C)NC(=O)[C@H](CO)NC(=O)[C@H](Cc2c[nH]c3ccccc23)NC(=O)[C@H](CCO)NC(=O)[C@@H](CCN)NC(=O)[C@H](CCC(=O)N[C@@H](CCN)C(=O)N[C@H](C(=O)N[C@@H](CN)C(=O)N[C@H]2CCNC(=O)[C@H]([C@@H](C)O)NC(=O)[C@H](CCN)NC(=O)[C@H](CCN)NC(=O)[C@H]([C@@H](C)O)NC(=O)[C@@H](CC(C)C)NC(=O)[C@H](CCN)NC2=O)[C@@H](C)O)NC(=O)[C@H](CCN)NC(=O)[C@H](Cc2ccc(O)cc2)NC1=O)C(C)C [Ex. 343] (I: Ac-VCY[Dab]E[dDab][hSer]WSVCS-NH2 / II: [Dab]T[Dap][Dab][Dab][dL]T[Dab][Dab]T; disulfide I:2-I:11; amide I:5-II:N; lactam II:4-II:C)	0/3 died at 2 × 40 mg/kg	0.0625	0.125 (≈ 0.0521 µM)	0.125	0.0625	0.03125	0.25 (≈ 0.104 µM)	0.25 (≈ 0.104 µM)	0.5 (≈ 0.208 µM)	<1
CC(C)C[C@@H]1NC(=O)[C@@H](CC(C)C)NC(=O)[C@H](CCN)NC(=O)[C@@H](NC(=O)[C@H](CN)NC(=O)[C@@H](NC(=O)[C@H](CCN)NC(=O)CC[C@@H]2NC(=O)[C@H](CCN)NC(=O)[C@H](Cc3ccc(O)cc3)NC(=O)[C@@H](NC(=O)[C@@H](O)C(C)C)CSSC[C@@H](C(=O)N[C@H](CO)C(N)=O)NC(=O)[C@H](C(C)C)NC(=O)[C@H](CO)NC(=O)[C@H](Cc3c[nH]c4ccccc34)NC(=O)[C@H](CO)NC(=O)[C@@H](CCN)NC2=O)[C@@H](C)O)CCNC(=O)[C@H]([C@@H](C)O)NC(=O)[C@H](CCN)NC(=O)[C@H](CCN)NC1=O [Ex. 344] (I: H-[Hiv]CY[Dab]E[dDab]SWSVC[dS]-NH2 / II: [Dab]T[Dap][Dab][Dab][dL]L[Dab][Dab]T; disulfide I:2-I:11; amide I:5-II:N; lactam II:4-II:C)	0/3 died at 2 × 40 mg/kg	0.125	1 (≈ 0.424 µM)	0.125	0.0625	0.0625	0.25 (≈ 0.106 µM)	0.125 (≈ 0.053 µM)	0.25 (≈ 0.106 µM)	<1
CC(=O)N[C@H](C(=O)N[C@H]1CSSC[C@@H](C(=O)N[C@@H](CO)C(N)=O)NC(=O)[C@H](C(C)C)NC(=O)[C@H](CO)NC(=O)[C@H](Cc2c[nH]c3ccccc23)NC(=O)[C@H](CCN)NC(=O)CNC(=O)[C@H](CCC(=O)N[C@@H](CCN)C(=O)N[C@H](C(=O)N[C@@H](CN)C(=O)N[C@H]2CCNC(=O)[C@H]([C@@H](C)O)NC(=O)[C@H](CCN)NC(=O)[C@H](CCN)NC(=O)[C@H](CC(C)C)NC(=O)[C@@H](CC(C)C)NC(=O)[C@H](CCN)NC2=O)[C@@H](C)O)NC(=O)[C@H](CCN)NC(=O)[C@H](Cc2ccc(O)cc2)NC1=O)C(C)C [Ex. 345] (I: Ac-VCY[Dab]EG[Dab]WSVCS-NH2 / II: [Dab]T[Dap][Dab][Dab][dL]L[Dab][Dab]T; disulfide I:2-I:11; amide I:5-II:N; lactam II:4-II:C)	0/3 died at 2 × 40 mg/kg	0.0625	0.125 (≈ 0.0528 µM)	0.125	0.0625	0.0625	0.125 (≈ 0.0528 µM)	0.125 (≈ 0.0528 µM)	0.25 (≈ 0.106 µM)	<1
